# ChEMBL document CHEMBL1275404, “Disulfide cyclized tripeptide analogues of angiotensin IV as potent and selective inhibitors of insulin-regulated aminopeptidase (IRAP)” (J Med Chem, 2010)
# Target: Aminopeptidase N (Homo sapiens, UniProt P15144)
# Experiment: Inhibition of catalytic activity of human recombinant aminopeptidase N expressed in HEK293 cells
# Assay type: cell-based
# Chain of Aminopeptidase N (P15144 whole entry): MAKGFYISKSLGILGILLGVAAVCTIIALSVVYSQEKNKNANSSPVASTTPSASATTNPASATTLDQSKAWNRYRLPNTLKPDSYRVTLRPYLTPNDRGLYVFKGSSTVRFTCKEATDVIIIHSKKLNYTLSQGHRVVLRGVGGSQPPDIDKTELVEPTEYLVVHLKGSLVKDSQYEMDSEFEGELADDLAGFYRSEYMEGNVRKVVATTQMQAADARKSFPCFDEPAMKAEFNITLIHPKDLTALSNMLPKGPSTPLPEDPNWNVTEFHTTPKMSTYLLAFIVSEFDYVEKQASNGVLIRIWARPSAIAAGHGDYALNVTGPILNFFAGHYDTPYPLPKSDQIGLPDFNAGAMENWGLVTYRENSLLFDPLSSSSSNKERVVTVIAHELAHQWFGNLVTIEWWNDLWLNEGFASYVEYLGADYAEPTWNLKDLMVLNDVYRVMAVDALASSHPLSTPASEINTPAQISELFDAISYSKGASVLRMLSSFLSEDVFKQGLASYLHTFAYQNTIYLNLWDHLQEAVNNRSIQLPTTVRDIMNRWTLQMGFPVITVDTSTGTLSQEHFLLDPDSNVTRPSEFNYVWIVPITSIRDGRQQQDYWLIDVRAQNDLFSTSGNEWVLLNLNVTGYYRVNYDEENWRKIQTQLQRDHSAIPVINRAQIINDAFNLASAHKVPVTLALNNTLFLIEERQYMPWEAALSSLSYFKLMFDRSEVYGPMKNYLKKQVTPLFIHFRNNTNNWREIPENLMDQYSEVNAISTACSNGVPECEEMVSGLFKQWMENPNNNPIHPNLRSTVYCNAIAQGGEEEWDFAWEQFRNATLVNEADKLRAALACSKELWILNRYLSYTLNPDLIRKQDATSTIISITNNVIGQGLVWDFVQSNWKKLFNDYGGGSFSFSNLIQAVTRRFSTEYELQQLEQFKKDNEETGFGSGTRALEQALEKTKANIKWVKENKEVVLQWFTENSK
row,Ki,SMILES
1,7.25 µM,N[C@H]1CCSSC[C@@H](C(=O)NCc2ccccc2CC(=O)O)NC(=O)C[C@H](Cc2ccc(O)cc2)NC1=O
2,10.8 µM,N[C@H]1CCSSC[C@H](C(=O)NCc2ccccc2CC(=O)O)NC(=O)C[C@H](Cc2ccc(O)cc2)NC1=O
